From patent US8367695B2, “Condensed tetrahydroquinoline derivative and use thereof for medical purposes” (Mitsubishi Tanabe Pharma Corporation, priority 2007, dated 2013) come the findings set out here.

The target in one experiment is T1, human recombinant glucocorticoids receptor (GR) (Homo sapiens, UniProt P04150).
T1 sequence (P04150 1-777): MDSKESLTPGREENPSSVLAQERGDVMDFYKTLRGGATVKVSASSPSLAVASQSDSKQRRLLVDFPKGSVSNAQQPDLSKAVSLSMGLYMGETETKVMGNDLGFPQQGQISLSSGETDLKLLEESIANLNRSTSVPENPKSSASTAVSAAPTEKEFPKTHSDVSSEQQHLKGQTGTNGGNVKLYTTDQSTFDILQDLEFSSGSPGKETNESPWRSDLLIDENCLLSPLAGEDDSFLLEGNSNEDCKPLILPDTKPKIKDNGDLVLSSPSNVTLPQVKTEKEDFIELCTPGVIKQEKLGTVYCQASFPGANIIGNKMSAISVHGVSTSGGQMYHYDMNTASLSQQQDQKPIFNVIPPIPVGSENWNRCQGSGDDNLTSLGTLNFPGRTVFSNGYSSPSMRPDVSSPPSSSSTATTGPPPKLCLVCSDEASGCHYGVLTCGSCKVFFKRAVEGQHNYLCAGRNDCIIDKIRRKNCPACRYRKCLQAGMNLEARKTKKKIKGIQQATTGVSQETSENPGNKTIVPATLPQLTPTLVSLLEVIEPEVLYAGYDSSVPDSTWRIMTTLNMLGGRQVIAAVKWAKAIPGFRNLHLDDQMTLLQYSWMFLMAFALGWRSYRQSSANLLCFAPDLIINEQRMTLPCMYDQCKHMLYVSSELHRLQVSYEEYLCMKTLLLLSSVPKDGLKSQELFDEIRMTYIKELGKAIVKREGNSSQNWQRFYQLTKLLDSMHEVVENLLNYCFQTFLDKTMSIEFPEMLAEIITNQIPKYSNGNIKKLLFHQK
Nature of the experiment: Radioactive ligand binding test, GR cytosol, [3H]-Dex.
Conditions: not given
As for the experimental part: Radioactive Ligand Binding Test Using Cytosols of Human Glucocorticoids Receptor, Progesterone Receptor and Mineralocorticoid Receptor
Opthalmol. Vis. […] In brief, cytosol preparations of human recombinant glucocorticoids receptor (GR) and human recombinant progesterone receptor-B (PRB) were purchased from Invitrogen (Carlsbad, Calif.), and a cytosol preparation of human recombinant mineralocorticoid receptor (MR) was prepared by our company (Yokohama, JP). MR cDNA was cloned into a baculovirus expression vector and expressed in insect cell Sf9. […] [^3H]-Dexamethasone (Dex, specific activity 91.0 Ci/mmol) was purchased from GE Healthcare (Buckinghamshire, UK), and [^3H]-progesterone (Prog, specific activity 103 Ci/mmol) and [3H]-aldosterone (Ald, specific activity 87.9 Ci/mmol) were each purchased from PerkinElmer (Boston, Mass.). Polypropylene round-bottomed 96 well plate was obtained from ABgene (Epsom, UK). Dimethyl Sulfoxide (DMSO) and hydrochloric acid were obtained from Kanto Chemical (TOKYO, JP). Trizma Base (Tris), Bovine Serum Albumin (BSA) and Sodium tungstate dihydrate were obtained from Sigma Chemicals (St. Louis, Mo.). Dithiothreitol (DTT) and Dextran 70 were obtained from GE Healthcare (Buckinghamshire, UK). Glycerol was obtained from Junsei Chemical (TOKYO, JP). Norit® “SX-II” was obtained from Wako Pure Chemical Industries, Ltd. (Osaka, JP). MeltiLex™, A, Printed Filtermat A and Sample Bag were obtained from PerkinElmer (Boston, Mass.).
As a buffer for GR binding assay, 25 mM Tris-HCl (4° C., pH 7.4)/1 mM EDTA·2Na/1 mM DTT/0.1% BSA was prepared and used. As buffers for PRB and MR binding assay, 10 mM Tris-HCl (4° C., pH 7.4)/1 mM DTT/0.1% BSA/10% glycerol and 20 mM Tris-HCl (4° C., pH 7.4)/1 mM EDTA·2Na/10% glycerol/20 mM sodium tungstate were respectively prepared and used.
Compound storage solutions (5-20 mM) were prepared using DMSO. The storage solutions were diluted with DMSO to 0.1 mM (for GR) and 0.3 mM (for PRB and MR), and further diluted 20-fold with distilled water to give solutions. Then, the preparations were diluted to each concentration with 5% DMSO solution. 1% DMSO was present at the time of the binding assay.
GR, PRB and MR binding reactions were performed in 96 well plate (ABgene). In the case of GR binding assay, [^3H]-Dex (about 5 nM), GR cytosol (concentration of function receptor: about 4 pmol/mL), a test compound and a binding buffer were mixed in a total volume of 50 μL, and the mixture was stood at 4° C. for 30 min or longer. A specific binding was defined to be the difference in the [^3H]-Dex binding between the presence and the absence of 1 μM unlabeled Dex.
After the reaction, 50 μL of DCC was added to each well and blended. Thereafter, the mixture was stood at 4° C. for 10 min. The plate was applied to high-speed cooling centrifuge under the conditions of 4° C., 2000 rpm, 5 min to perform B/F separation. A given amount of the supernatant was recovered, which was spotted on Filtermat A of 96 well format (PerkinElmer) and rapidly dried at a high temperature.
Measurement of Inhibition Constant (Ki)
Ki of the test compound was determined by the following Cheng-Prusoff equation: Ki=IC50/(1+[L*]/Kd) • wherein L* is a concentration of radioactive ligand and Kd is a dissociation constant for radioactive ligand determined by saturation analysis.
The term Ki denotes a measure of affinity in units of concentration, obtained from inhibition or displacement. In the case of `C=CCC1(C)C(=O)C(C)(C)Nc2c1cc(-c1cccc3cc[nH]c13)c1c2OCO1` (centres unmarked) [Example 78, 6-allyl-4-(1H-indol-7-yl)-6,8,8-trimethyl-6,7,8,9-tetrahydro-[1,3]dioxolo[4,5-h]quinolin-7-one], the inhibitory constant (Ki) turned out to be 80 nM.

Still in this experiment, the particulars now being: [3H]-Dex about 5 nM, GR cytosol, 4° C.; Cheng-Prusoff, Kd about 3.1 nM; read-out: GR (Ki: nM).
As to `CC1(C)Nc2c(cc(-c3cccc4ncccc34)c3c2CCC3)C(C)(C)C1=O` [Example 20, 2,2,4,4-tetramethyl-6-(quinolin-5-yl)-2,3,4,7,8,9-hexahydro-1H-cyclopenta[h]quinolin-3-one], the inhibition constant (Ki) turned out to be 70 nM.

`CC1(C)Nc2c(cc(-c3cccc4nccn34)c3c2CCO3)C(C)(C)C1=O` [Example 88, 6-(imidazo[1,2-a]pyridin-5-yl)-2,2,4,4-tetramethyl-1,2,3,4,8,9-hexahydro-furo[2,3-h]quinolin-3-one]: the Ki came to 19 nM.

With `CC#CCC1(C)C(=O)C(C)(C)Nc2c1cc(-c1cccc3nccn13)c1c2CCC1` (centres unmarked) [Example 63, 4-(2-butynyl)-6-(imidazo[1,2-a]pyridin-5-yl)-2,2,4-trimethyl-2,3,4,7,8,9-hexahydro-1H-cyclopenta[h]quinolin-3-one], the Ki is 27 nM.

Regarding `Cc1noc(C)c1-c1cc2c(c3c1CCC3)NC(C)(C)C(=O)C2(C)C` [Example 2, 6-(3,5-dimethylisoxazol-4-yl)-2,2,4,4-tetramethyl-2,3,4,7,8,9-hexahydro-1H-cyclopenta[h]quinolin-3-one], the Ki was determined as 15 nM.

`CCC1(C)C(=O)C(C)(C)Nc2c1cc(-c1cccc3nccn13)c1c2CCC1` (centres unmarked) [Example 58, 4-ethyl-6-(imidazo[1,2-s]pyridin-5-yl)-2,2,4-trimethyl-2,3,4,7,8,9-hexahydro-1H-cyclopenta[h]quinolin-3-one]: the Ki was 12 nM.

Consider `CC1(C)Nc2c(cc(-c3ccnc4ncccc34)c3c2CCO3)C(C)(C)C1=O` [Example 92, 2,2,4,4-tetramethyl-6-([1,8]naphthyridin-4-yl)-1,2,3,4,8,9-hexahydro-furo[2,3-h]quinolin-3-one], for which the Ki worked out at 64 nM.

Turning to `Cc1onc(CO)c1-c1cc2c(c3ccoc13)NC(C)(C)C(=O)C2(C)C` [Example 94, 6-(3-hydroxymethyl-5-methylisoxazol-4-yl)-2,2,4,4-tetramethyl-1,2,3,4-tetrahydro-furo[2,3-h]quinolin-3-one], the inhibitory constant (Ki) is 11 nM.

`CC1(C)Nc2c(cc(-c3cccc4nccn34)c3occc23)C(C)(C)C1=O` [Example 98, 6-(imidazo[1,2-a]pyridin-5-yl)-2,2,4,4-tetramethyl-1,2,3,4-tetrahydro-furo[2,3-h]quinolin-3-one]: the Ki was 15 nM.

With `Cc1noc(C)c1-c1cc2c(c3c1OCC3)NC(C)(C)C(=O)C2(C)C` [Example 84, 6-(3,5-dimethylisoxazol-4-yl)-2,2,4,4-tetramethyl-1,2,3,4,8,9-hexahydro-furo[2,3-h]quinolin-3-one], the inhibitory constant (Ki) was 27 nM.

For `Cc1noc(C)c1-c1cc2c(c3c1OCO3)NC(C)(C)C(=O)C2(C)C` [Example 69, 4-(3,5-dimethylisoxazol-4-yl)-6,6,8,8-tetramethyl-6,7,8,9-tetrahydro-[1,3]dioxolo[4,5-h]quinolin-7-one], the Ki was 55 nM.

Regarding `C=CCC1(C)C(=O)C(C)(C)Nc2c1cc(-c1c(C)noc1C)c1c2CCC1` (centres unmarked) [Example 51, 4-allyl-6-(3,5-dimethylisoxazol-4-yl)-2,2,4-trimethyl-2,3,4,7,8,9-hexahydro-1H-cyclopenta[h]quinolin-3-one], the inhibition constant Ki was 17 nM.

Regarding `Cc1nnn(C)c1-c1cc2c(c3c1CCC3)NC(C)(C)C(=O)C2(C)C` [Example 4, 6-(3,5-dimethyl-3H-[1,2,3]triazol-4-yl)-2,2,4,4-tetramethyl-2,3,4,7,8,9-hexahydro-1H-cyclopenta[h]quinolin-3-one], the Ki worked out at 53 nM.

For the molecule `CC1(C)Nc2c(cc(-c3ccnc4ncccc34)c3c2CCC3)C(C)(C)C1=O` [Example 21, 2,2,4,4-tetramethyl-6-([1,8]naphthyridin-4-yl)-2,3,4,7,8,9-hexahydro-1H-cyclopenta[h]quinolin-3-one], the inhibition constant (Ki) was 35 nM.

Take `CC1(C)Nc2c(cc(-c3cccc4nncn34)c3c2CCC3)C(C)(C)C1=O` [Example 17, 2,2,4,4-tetramethyl-6-([1,2,4]triazolo[4,3-a]pyridin-5-yl)-2,3,4,7,8,9-hexahydro-1H-cyclopenta[h]quinolin-3-one]: the inhibitory constant (Ki) amounted to 53 nM.

Regarding `Cc1noc(C)c1-c1cc2c(c3c1C(=O)CC3)NC(C)(C)C(=O)C2(C)C` [Example 104, 6-(3,5-dimethylisoxazol-4-yl)-2,2,4,4-tetramethyl-2,3,4,7,8,9-hexahydro-1H-cyclopenta[h]quinoline-3,7-dione], the Ki was 60 nM.

With `CC1(C)Nc2c(cc(-c3cncc4nccn34)c3occc23)C(C)(C)C1=O` [Example 100, 6-(imidazo[1,2-a]pyrazin-5-yl)-2,2,4,4-tetramethyl-1,2,3,4-tetrahydro-furo[2,3-h]quinolin-3-one], the Ki worked out at 85 nM.

Take `C=C1C(C)(C)Nc2c(cc(-c3c(C)ncn3C)c3c2CCC3)C1(C)C` [Example 29, 6-(3,5-dimethyl-3H-imidazol-4-yl)-2,2,4,4-tetramethyl-3-methylene-2,3,4,7,8,9-hexahydro-1H-cyclopenta[h]quinoline]: the Ki was 58 nM.

As to `CC1(C)Nc2c(cc(-c3cccc4nccn34)c3c2OC(F)(F)O3)C(C)(C)C1=O` [Example 82, 2,2-difluoro-4-(imidazo[1,2-a]pyridin-5-yl)-6,6,8,8-tetramethyl-6,7,8,9-tetrahydro-[1,3]dioxolo[4,5-h]quinolin-7-one], the Ki worked out at 47 nM.

As to `CC1(C)Nc2c(cc(-c3cccc4nccn34)c3c2CCC3)C(C)(C)C1=O` [Example 14, 6-(imidazo[1,2-a]pyridin-5-yl)-2,2,4,4-tetramethyl-2,3,4,7,8,9-hexahydro-1H-cyclopenta[h]quinolin-3-one], the inhibition constant (Ki) came out at 11 nM.

Turning to `C=CCC1(C)C(=O)C(C)(C)Nc2c1cc(-c1cccc3nccn13)c1c2CCC1` (centres unmarked) [Example 57, 4-allyl-6-(imidazo[1,2-a]pyridin-5-yl)-2,2,4-trimethyl-2,3,4,7,8,9-hexahydro-1H-cyclopenta[h]quinolin-3-one], the Ki worked out at 14 nM.

In the case of `C=CCC1(C)C(=O)C(C)(C)Nc2c1cc(-c1ccc(O)cc1C)c1c2CCC1` (centres unmarked) [Example 50, 4-allyl-6-(4-hydroxy-2-methylphenyl)-2,2,4-trimethyl-2,3,4,7,8,9-hexahydro-1H-cyclopenta[h]quinolin-3-one], the Ki turned out to be 97 nM.

Regarding `CC1(C)Nc2c(cc(-c3cccc4ncccc34)c3occc23)C(C)(C)C1=O` [Example 101, 2,2,4,4-tetramethyl-6-(quinolin-5-yl)-1,2,3,4-tetrahydro-furo [2,3-h]quinolin-3-one], the Ki is 35 nM.
